In assay [1] the target is Human HDAC1 (Homo sapiens (Human), UniProt Q13547). The assay can be described thus: HDAC enzyme activity inhibition assay, HDAC1. The class given is biochemical. The conditions noted are these: Table 1; mean of two experiments ± standard deviation; 10-point assay from 30 μM, 3-fold serial dilution.
Assay [2] concerns the target Human HDAC6 (Homo sapiens (Human), UniProt Q9UBN7). The assay can be described thus: HDAC enzyme activity inhibition assay, HDAC6. The settings on record: Table 1; for IC50: mean of two experiments ± standard deviation, 10-point assay from 30 μM, 3-fold serial dilution; for Selectivity HDAC1/HDAC6: ratio of IC50 values. The class given is biochemical.
Assay [3] concerns symptomatic mutant HSPB1 mice. The conditions noted are these: cited from earlier work.
For assay [4], the target named is HDAC2 (Homo sapiens (Human), UniProt Q92769). In words: HDAC enzyme activity inhibition assay, HDAC2. The settings on record: Table 2; mean of two experiments. The class given is biochemical.
Sequence of HDAC2 (Q92769 whole entry): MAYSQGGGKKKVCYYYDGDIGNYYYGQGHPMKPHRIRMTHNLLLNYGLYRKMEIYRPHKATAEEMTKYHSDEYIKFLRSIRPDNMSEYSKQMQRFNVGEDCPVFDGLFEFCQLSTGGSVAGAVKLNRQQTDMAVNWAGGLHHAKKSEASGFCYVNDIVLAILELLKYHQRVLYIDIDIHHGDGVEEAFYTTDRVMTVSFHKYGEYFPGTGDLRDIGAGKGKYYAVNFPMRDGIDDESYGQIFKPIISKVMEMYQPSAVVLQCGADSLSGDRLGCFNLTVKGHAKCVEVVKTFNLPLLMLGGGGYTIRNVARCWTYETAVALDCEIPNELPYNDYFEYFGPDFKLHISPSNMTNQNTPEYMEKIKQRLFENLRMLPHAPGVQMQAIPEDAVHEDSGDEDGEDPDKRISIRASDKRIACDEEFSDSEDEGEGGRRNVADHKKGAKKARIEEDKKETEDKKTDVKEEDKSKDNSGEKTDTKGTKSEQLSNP
Assay [5] has as its target HDAC3/NcoR2 complex (Homo sapiens (Human), UniProt O15379). In words: HDAC enzyme activity inhibition assay, HDAC3. The class given is biochemical. The settings on record: Table 2; mean of two experiments.
The target in assay [6] is HDAC4 (Homo sapiens (Human), UniProt P56524). In words: HDAC enzyme activity inhibition assay, HDAC4. The settings on record: Table 2; mean of two experiments. The class given is biochemical.
Sequence of HDAC4 (P56524 whole entry): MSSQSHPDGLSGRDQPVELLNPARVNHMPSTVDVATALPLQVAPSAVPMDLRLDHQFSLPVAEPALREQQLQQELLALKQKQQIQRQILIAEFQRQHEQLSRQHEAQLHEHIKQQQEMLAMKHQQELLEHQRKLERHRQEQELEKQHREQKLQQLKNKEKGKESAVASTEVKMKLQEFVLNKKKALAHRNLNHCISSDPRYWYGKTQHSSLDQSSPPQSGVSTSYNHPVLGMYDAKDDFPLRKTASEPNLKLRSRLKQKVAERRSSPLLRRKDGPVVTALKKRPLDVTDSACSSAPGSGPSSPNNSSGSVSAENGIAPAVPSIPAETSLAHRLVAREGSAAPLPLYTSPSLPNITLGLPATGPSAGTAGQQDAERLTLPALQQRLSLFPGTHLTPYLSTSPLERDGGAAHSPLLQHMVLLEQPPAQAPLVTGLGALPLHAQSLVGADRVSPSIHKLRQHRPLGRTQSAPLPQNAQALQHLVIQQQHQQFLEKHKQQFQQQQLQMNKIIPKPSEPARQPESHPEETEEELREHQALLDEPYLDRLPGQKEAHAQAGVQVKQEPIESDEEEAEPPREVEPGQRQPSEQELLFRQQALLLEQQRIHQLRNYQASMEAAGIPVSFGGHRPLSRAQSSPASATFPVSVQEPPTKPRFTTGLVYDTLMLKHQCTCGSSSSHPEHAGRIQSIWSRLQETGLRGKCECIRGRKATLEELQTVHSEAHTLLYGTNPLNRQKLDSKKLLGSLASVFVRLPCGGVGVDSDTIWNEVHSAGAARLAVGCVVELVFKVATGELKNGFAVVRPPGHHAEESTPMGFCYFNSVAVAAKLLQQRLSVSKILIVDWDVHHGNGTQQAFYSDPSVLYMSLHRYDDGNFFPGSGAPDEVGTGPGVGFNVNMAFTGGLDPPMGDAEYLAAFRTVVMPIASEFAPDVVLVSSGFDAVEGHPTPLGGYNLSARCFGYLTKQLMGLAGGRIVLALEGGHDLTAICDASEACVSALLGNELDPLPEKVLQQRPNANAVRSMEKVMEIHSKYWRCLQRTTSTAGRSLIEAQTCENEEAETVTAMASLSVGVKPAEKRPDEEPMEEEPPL
In assay [7] the target is HDAC5 (Homo sapiens (Human), UniProt Q9UQL6). In words: HDAC enzyme activity inhibition assay, HDAC5. The conditions noted are these: Table 2; mean of two experiments. The class given is biochemical.
In assay [8] the target is HDAC8 (Homo sapiens (Human), UniProt Q9BY41). In words: HDAC enzyme activity inhibition assay, HDAC8. The class given is biochemical.
Sequence of HDAC8 (Q9BY41 whole entry): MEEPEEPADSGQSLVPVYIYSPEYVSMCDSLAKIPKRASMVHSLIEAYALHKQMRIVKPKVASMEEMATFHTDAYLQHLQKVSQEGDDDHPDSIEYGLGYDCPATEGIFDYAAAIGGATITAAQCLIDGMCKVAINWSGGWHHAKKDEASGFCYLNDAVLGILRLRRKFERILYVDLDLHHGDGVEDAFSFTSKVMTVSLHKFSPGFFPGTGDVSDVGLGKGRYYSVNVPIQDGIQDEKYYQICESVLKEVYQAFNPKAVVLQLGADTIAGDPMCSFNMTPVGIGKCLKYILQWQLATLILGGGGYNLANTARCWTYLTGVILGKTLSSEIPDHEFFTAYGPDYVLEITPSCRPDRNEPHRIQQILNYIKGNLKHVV
Assay [9] concerns the target HDAC9 (Homo sapiens (Human), UniProt Q9UKV0). In words: HDAC enzyme activity inhibition assay, HDAC9. The class given is biochemical. The settings on record: Table 2; mean of two experiments.
Assay [10] addresses HDAC10 (Homo sapiens (Human), UniProt Q969S8). In words: HDAC enzyme activity inhibition assay, HDAC10. It is filed as biochemical. The conditions noted are these: Table 2; mean of two experiments.
The target of assay [11] is HDAC11 (Homo sapiens (Human), UniProt Q96DB2). The assay can be described thus: HDAC enzyme activity inhibition assay, HDAC11. It is filed as biochemical. The conditions noted are these: Table 2; mean of two experiments.
Sequence of HDAC11 (Q96DB2 whole entry): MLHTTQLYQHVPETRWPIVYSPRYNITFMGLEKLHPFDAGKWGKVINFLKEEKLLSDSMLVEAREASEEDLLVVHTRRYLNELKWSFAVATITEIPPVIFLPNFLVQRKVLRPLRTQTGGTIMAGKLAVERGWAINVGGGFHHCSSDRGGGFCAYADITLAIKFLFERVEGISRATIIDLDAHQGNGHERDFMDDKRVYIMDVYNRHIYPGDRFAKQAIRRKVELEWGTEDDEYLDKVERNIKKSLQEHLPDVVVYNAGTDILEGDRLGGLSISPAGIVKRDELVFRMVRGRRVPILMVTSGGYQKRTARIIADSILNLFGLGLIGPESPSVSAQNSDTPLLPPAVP
Assay [12] concerns cardiac fibroblasts. In words: Tubulin acetylation in adult rat cardiac fibroblasts. The conditions noted are these: in comparison to the DMSO control (FIG. 2). The class given is cell-based. Here is the method:
The ability of the inhibitor to induce tubulin acetylation in cardiac fibroblasts was also determined and western blot is shown below.

Assay [13] deals with GBM6 cells. In words: Growth inhibition of glioblastoma cell line GBM6. It is filed as cell-based. The settings on record: FIG. 4.
For assay [14], the target named is HDAC7 (Homo sapiens (Human), UniProt Q8WUI4). In words: biochemical.
Sequence of HDAC7 (Q8WUI4 whole entry): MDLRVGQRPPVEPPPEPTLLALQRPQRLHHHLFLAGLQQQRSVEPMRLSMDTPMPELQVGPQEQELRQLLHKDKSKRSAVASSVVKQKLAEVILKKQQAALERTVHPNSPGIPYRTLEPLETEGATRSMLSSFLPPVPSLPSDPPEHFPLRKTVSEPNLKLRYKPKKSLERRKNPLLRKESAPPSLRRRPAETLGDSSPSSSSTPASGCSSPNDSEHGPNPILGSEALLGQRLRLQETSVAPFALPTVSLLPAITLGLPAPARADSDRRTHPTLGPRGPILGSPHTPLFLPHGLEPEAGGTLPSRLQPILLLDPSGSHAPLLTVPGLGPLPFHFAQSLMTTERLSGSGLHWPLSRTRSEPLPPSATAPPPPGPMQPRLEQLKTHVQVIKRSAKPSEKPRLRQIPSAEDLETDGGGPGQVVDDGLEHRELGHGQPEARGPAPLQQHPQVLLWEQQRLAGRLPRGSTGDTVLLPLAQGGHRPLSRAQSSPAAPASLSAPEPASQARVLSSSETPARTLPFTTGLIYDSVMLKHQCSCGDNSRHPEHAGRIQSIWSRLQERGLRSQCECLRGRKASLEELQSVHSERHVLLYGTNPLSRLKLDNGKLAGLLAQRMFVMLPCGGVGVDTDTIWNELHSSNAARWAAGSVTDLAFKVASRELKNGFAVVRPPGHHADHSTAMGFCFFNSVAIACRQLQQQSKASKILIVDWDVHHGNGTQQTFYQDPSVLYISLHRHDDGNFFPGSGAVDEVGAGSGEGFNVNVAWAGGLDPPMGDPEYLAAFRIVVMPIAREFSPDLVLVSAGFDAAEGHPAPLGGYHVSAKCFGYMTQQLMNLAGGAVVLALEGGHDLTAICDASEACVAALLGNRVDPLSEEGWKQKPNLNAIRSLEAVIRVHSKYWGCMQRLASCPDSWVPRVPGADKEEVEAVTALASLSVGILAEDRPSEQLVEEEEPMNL
Assay [15] relates to traumatic brain injury. The conditions noted are these: following traumatic brain injury in rats; cited from earlier work.
Assay [16] has as its system mice with colitis. The settings on record: treatment begun once colitis had developed; cited from earlier work.

A value given as a limit tells only on which side of the number the result lay.

Sequence of Human HDAC1 (Q13547 whole entry): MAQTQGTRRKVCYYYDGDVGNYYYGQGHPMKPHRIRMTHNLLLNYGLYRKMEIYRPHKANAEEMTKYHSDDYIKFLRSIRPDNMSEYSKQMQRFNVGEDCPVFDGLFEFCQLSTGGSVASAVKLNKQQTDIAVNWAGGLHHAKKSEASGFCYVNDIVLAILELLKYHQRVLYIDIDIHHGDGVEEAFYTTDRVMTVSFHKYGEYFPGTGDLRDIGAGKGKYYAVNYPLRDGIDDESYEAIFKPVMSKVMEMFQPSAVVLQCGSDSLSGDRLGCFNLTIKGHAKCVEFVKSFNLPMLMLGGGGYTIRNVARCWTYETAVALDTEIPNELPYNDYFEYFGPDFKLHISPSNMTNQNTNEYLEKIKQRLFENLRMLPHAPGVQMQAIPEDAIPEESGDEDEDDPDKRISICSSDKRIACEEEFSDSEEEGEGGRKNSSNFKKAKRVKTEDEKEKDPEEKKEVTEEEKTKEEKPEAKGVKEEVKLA
Sequence of Human HDAC6 (Q9UBN7 whole entry): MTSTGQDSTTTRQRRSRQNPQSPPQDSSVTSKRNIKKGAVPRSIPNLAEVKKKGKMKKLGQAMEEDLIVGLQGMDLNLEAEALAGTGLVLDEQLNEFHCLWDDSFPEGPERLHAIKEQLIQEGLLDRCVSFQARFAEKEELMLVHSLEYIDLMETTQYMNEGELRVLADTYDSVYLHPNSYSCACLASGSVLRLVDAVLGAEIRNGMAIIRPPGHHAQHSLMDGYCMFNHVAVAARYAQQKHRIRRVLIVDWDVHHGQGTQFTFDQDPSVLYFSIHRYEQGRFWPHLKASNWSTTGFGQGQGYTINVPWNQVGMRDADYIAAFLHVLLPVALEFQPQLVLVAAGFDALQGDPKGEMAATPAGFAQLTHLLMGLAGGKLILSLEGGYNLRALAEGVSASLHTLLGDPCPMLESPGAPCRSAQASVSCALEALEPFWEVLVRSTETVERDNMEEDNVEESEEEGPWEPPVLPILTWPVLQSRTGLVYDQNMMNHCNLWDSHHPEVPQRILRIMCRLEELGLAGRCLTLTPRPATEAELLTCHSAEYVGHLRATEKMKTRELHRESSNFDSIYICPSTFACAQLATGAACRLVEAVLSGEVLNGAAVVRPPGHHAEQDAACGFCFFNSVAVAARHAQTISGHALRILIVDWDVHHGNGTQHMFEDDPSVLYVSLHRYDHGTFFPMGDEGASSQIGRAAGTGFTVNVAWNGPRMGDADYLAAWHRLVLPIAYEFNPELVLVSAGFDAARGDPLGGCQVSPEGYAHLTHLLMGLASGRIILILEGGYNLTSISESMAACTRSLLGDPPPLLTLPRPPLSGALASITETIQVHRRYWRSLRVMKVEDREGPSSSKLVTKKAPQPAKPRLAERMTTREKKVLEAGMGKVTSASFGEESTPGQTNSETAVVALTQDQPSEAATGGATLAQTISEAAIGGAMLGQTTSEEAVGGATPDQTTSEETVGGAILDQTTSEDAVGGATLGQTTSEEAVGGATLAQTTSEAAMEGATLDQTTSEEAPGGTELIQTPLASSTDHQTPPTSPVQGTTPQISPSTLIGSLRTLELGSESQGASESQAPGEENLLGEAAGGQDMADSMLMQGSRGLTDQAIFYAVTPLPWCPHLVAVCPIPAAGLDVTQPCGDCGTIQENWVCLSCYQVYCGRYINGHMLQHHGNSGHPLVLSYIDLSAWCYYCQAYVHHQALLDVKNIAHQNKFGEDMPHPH

For `CC1(C)CCN(Cc2ccc(C(=O)NO)cc2)c2ccc(Cl)cc21` [Example 12, 4-((6-chloro-4,4-dimethyl-3,4-dihydroquinolin-1(2H)-yl)methyl)-N-hydroxybenzamide], half-maximal inhibition in assay [1] (IC50) was put at 19500 ± 700 nM. Moreover, in [2], the IC50 (usually the concentration at which inhibition is half-maximal) was found to be 37.8 ± 4.8 nM and the “Selectivity HDAC1/HDAC6” value stood at 516.

Turning to `O=C(NO)c1ccc(CN2CCSc3ccccc32)cc1` [Example 16, 4-((2,3-dihydro-4H-benzo[b][1,4]thiazin-4-yl)methyl)-N-hydroxybenzamide], in assay [1], inhibition was half-maximal at 7935 ± 25 nM (IC50). Besides, in [2], the half-maximal inhibitory concentration (IC50) is 6.1 ± 0.1 nM and the “Selectivity HDAC1/HDAC6” value is on record as 1300.

With `CC1(C)CCN(Cc2ccc(C(=O)NO)cc2)c2ccc(F)cc21` [Example 13, 4-((6-fluoro-4,4-dimethyl-3,4-dihydroquinolin-1(2H)-yl)methyl)-N-hydroxybenzamide], the figures for the IC50 in assay [1] and in [2] were 21100 ± 800 nM and 45.1 ± 0.05 nM, respectively. For the same compound, the “Selectivity HDAC1/HDAC6” value in [2] is on record as 468.

With `O=C(NO)c1ccc(CN2CCCc3cc(Cl)ccc32)c(F)c1` [Example 3, 4-((6-chloro-3,4-dihydroquinolin-1(2H)-yl)methyl)-3-fluoro-N-hydroxybenzamide], half-maximal inhibition in assay [1] (IC50) was put at 21200 ± 1150 nM. In [2], half-maximal inhibition (IC50) required 12.4 ± 5.5 nM and the “Selectivity HDAC1/HDAC6” value amounted to 1706.

Compound `CC(C)(C)OC(=O)N1CC(=O)N(Cc2ccc(C(=O)NO)cc2)c2ccccc21` [Example 18, tert-butyl 4-(4-(hydroxycarbamoyl)benzyl)-3-oxo-3,4-dihydroquinoxaline-1(2H)-carboxylate] had an IC50 in [1] of 22000 ± 1550 nM. Moreover, in assay [2], the IC50 is 33.6 ± 1.9 nM and the “Selectivity HDAC1/HDAC6” value amounted to 653.

On to `O=C(NO)c1ccc(CN2CCCc3cc(Cl)c(F)cc32)cc1` [Example 8, 4-((6-chloro-7-fluoro-3,4-dihydroquinolin-1(2H)-yl)methyl)-N-hydroxybenzamide], for which the IC50 in [1] is 3220 ± 85 nM; in assay [2] it was 4.8 ± 0.78 nM. Also, the “Selectivity HDAC1/HDAC6” value in [2] came to 670.

Compound `O=C(NO)c1ccc(CN2CCCc3cc(F)c(Cl)cc32)cc1` [Example 7, 4-((7-chloro-6-fluoro-3,4-dihydroquinolin-1(2H)-yl)methyl)-N-hydroxybenzamide] showed an IC50 in [1] of 1865 ± 5 nM. Moreover, in assay [2], half-maximal inhibition (IC50) was put at 3.43 ± 0.27 nM and the “Selectivity HDAC1/HDAC6” value worked out at 544.

Consider `CC1(C)CCc2cc(Cl)ccc2N1Cc1ccc(C(=O)NO)cc1` [Example 9, 4-((6-chloro-2,2-dimethyl-3,4-dihydroquinolin-1(2H)-yl)methyl)-N-hydroxybenzamide], for which the values for the IC50 in [1] and in assay [2] were 19600 ± 2450 nM and 328 ± 15.5 nM, respectively. In addition, in assay [2], the “Selectivity HDAC1/HDAC6” value worked out at 60.

In the case of `O=C(NO)c1ccc(CN2CC[S+]([O-])c3ccccc32)cc1` (centres unmarked) [Example 17, N-hydroxy-4-((1-oxido-2,3-dihydro-4H-benzo[b][1,4]thiazin-4-yl)methyl)benzamide], the IC50 stood at 2600 ± 30 nM in assay [1] and 2 ± 0.1 nM in assay [2]. Besides, the “Selectivity HDAC1/HDAC6” value in [2] worked out at 1300.

In turn, `CC1(C)CC(=O)N(Cc2ccc(C(=O)NO)cc2)c2ccc(Cl)cc21` [Example 11, 4-((6-chloro-4,4-dimethyl-2-oxo-3,4-dihydroquinolin-1(2H)-yl)methyl)-N-hydroxybenzamide] displayed an IC50 in [1] of 6500 ± 230 nM. Further, in assay [2], the IC50 turned out to be 28.9 ± 1.1 nM and the “Selectivity HDAC1/HDAC6” value amounted to 225.

In turn, `CC(c1ccc(C(=O)NO)cc1)N1CCCc2cc(Cl)ccc21` (centres unmarked) [Example 4, 4-(1-(6-chloro-3,4-dihydroquinolin-1(2H)-yl)ethyl)-N-hydroxybenzamide] registered an IC50 in assay [1] of 8430 ± 30 nM. For the same compound, in assay [2], inhibition was half-maximal at 382 ± 20.5 nM (IC50) and the “Selectivity HDAC1/HDAC6” value worked out at 22.

As to `CC1(C)CCc2cc(F)ccc2N1Cc1ccc(C(=O)NO)cc1` [Example 10, 4-((6-fluoro-2,2-dimethyl-3,4-dihydroquinolin-1(2H)-yl)methyl)-N-hydroxybenzamide], the results for the IC50 in assay [1] and in [2] were 14100 ± 1900 nM and 161 ± 3 nM, respectively. Besides, the “Selectivity HDAC1/HDAC6” value in assay [2] is 88.

In assay [1], `O=C(NO)c1ccc(CN2CCCc3cc(Cl)c(Cl)cc32)cc1` [Example 6, 4-((6,7-dichloro-3,4-dihydroquinolin-1(2H)-yl)methyl)-N-hydroxybenzamide] came in with an IC50 of 2620 ± 115 nM. In addition, in assay [2], the IC50 was 3.59 ± 0.1 nM and the “Selectivity HDAC1/HDAC6” value amounted to 728.

Consider `CN1CCc2c(c3ccccc3n2Cc2ccc(C(=O)NO)cc2)C1` [Tubastatin A], for which the “axonal transport defects and CMT phenotype” value in assay [3] was “corrects the axonal transport defects induced by HSPB1 mutations and rescues the CMT phenotype”.

In the case of `O=C(NO)c1ccc(CN2CCCc3cc(Cl)ccc32)cc1` [Example 2, 4-((6-chloro-3,4-dihydroquinolin-1(2H)-yl)methyl)-N-hydroxybenzamide], the IC50 in assay [4] is greater than 30000 nM; in assay [5], greater than 30000 nM; in assay [6] it was 11000 nM; in assay [7], 4550 nM; in assay [8], 3340 nM; in [9] it was 3460 nM. The IC50 was greater than 30000 nM in assay [10], 746 nM in assay [11] and 4060 nM in [14]. The tubulin acetylation entry in [12] is listed as “robust tubulin acetylation”. In addition, the “growth of glioblastoma cell line (GBM6)” value in assay [13] is on record as “inhibit the growth”.

As to `CN(C)c1ccc(C(=O)NCCCCCNC(=O)CS)cc1` [DMA-PB, 4-dimethylamino-N-[5-(2-mercaptoacetylamino)pentyl]benzamide], in [15], the “histone H3 acetylation and microglia inflammatory response” value is “increase histone H3 acetylation and reduce microglia inflammatory response”.

In [1], `O=C(NO)c1ccc(CN2CCCc3ccccc32)cc1` [Example 1, 4-((3,4-dihydroquinolin-1(2H)-yl)methyl)-N-hydroxybenzamide] came in with an IC50 of 11100 nM. Also, in [2], the IC50 is 14.6 nM and the “Selectivity HDAC1/HDAC6” value is 760.

On to `O=C(NO)c1ccc(CN2CCNc3ccccc32)cc1` [Example 14, 4-((3,4-dihydroquinoxalin-1(2H)-yl)methyl)-N-hydroxybenzamide], for which half-maximal inhibition in assay [1] (IC50) required 8750 ± 1070 nM. In addition, in assay [2], half-maximal inhibition (IC50) required 2.9 ± 0.4 nM and the “Selectivity HDAC1/HDAC6” value turned out to be 3017.

Regarding `O=C(CCCCCCC(=O)Nc1ccc([C@H]2O[C@@H](CSc3nc(-c4ccccc4)c(-c4ccccc4)o3)C[C@@H](c3ccc(CO)cc3)O2)cc1)NO` [tubacin], the “rescue of mice with colitis” value in assay [16] is given as “able to rescue mice”.

In assay [1], `O=C(NO)c1ccc(Cn2c(=O)cnc3ccccc32)cc1` [Example 19, N-hydroxy-4-((2-oxoquinoxalin-1(2H)-yl)methyl)benzamide] came in with an IC50 of 1045 ± 5 nM. For the same compound, in assay [2], half-maximal inhibition (IC50) was put at 1.2 ± 0.3 nM and the “Selectivity HDAC1/HDAC6” value is on record as 870.

On to `O=C(NO)c1ccc(CN2CCN(CC3CC3)c3ccccc32)cc1` [Example 15, 4-((4-(cyclopropylmethyl)-3,4-dihydroquinoxalin-1(2H)-yl)methyl)-N-hydroxybenzamide], for which, in assay [1], the midpoint of inhibition, the IC50, lay at 6690 ± 270 nM. In addition, in assay [2], the IC50 stood at 39.3 ± 0.3 nM and the “Selectivity HDAC1/HDAC6” value came to 170.

Consider `O=C(NO)c1ccc(CN2CCCc3cc(F)ccc32)cc1` [Example 5, 4-((6-fluoro-3,4-dihydroquinolin-1(2H)-yl)methyl)-N-hydroxybenzamide], for which, in [1], the IC50 was 5235 ± 45 nM. Further, in assay [2], the IC50 was found to be 5.05 ± 0.23 nM and the “Selectivity HDAC1/HDAC6” value is given as 1037.

Values taken from patent publication US10456394B2, “Tetrahydroquinoline substituted hydroxamic acids as selective histone deacetylase 6 inhibitors” (THE BOARD OF TRUSTEES OF THE UNIVERSITY OF ILLINOIS, priority 2016, dated 2019).
